Assay results from the NIST ThermoML archive (doi:10.1016/j.fluid.2005.06.010).
± gives the expanded uncertainty stated by the source.

Assay: xn = mol fraction of the nth substance listed
Settings: Fluid (supercritical or subcritical phases), Vibrating tube method

c1ccc2ccccc2c1 [naphthalene] + O=C=O
Settings	mass density [kg/m3]
318.14 K, 21268 kPa, x1 = 0.0237	858.75 ± 0.55
318.14 K, 21759 kPa, x1 = 0.0237	862.5 ± 0.54
318.14 K, 22256 kPa, x1 = 0.0237	866.12 ± 0.54
318.14 K, 22769 kPa, x1 = 0.0237	869.73 ± 0.53
318.14 K, 23308 kPa, x1 = 0.0237	873.42 ± 0.53
318.14 K, 23561 kPa, x1 = 0.0237	875.25 ± 0.53
323.03 K, 14061 kPa, x1 = 0.0198	735.87 ± 0.73
323.03 K, 14281 kPa, x1 = 0.0198	740.33 ± 0.73
323.03 K, 14482 kPa, x1 = 0.0198	744.21 ± 0.72
323.03 K, 15014 kPa, x1 = 0.0198	753.86 ± 0.68
323.03 K, 16032 kPa, x1 = 0.0198	770.24 ± 0.65
323.03 K, 17031 kPa, x1 = 0.0198	784.26 ± 0.62
323.03 K, 18075 kPa, x1 = 0.0198	797.2 ± 0.6
323.03 K, 19028 kPa, x1 = 0.0198	807.85 ± 0.58
323.03 K, 20080 kPa, x1 = 0.0198	818.58 ± 0.57
323.03 K, 21050 kPa, x1 = 0.0198	827.65 ± 0.56
323.03 K, 22246 kPa, x1 = 0.0198	838 ± 0.55
323.03 K, 24029 kPa, x1 = 0.0198	851.96 ± 0.53
323.03 K, 24780 kPa, x1 = 0.0198	857.36 ± 0.52
323.06 K, 16579 kPa, x1 = 0.0276	788.12 ± 0.61
323.06 K, 16788 kPa, x1 = 0.0276	790.83 ± 0.64
323.06 K, 17004 kPa, x1 = 0.0276	793.51 ± 0.64
323.06 K, 17203 kPa, x1 = 0.0276	795.99 ± 0.64
323.06 K, 17382 kPa, x1 = 0.0276	798.16 ± 0.63
323.06 K, 17590 kPa, x1 = 0.0276	800.59 ± 0.6
323.06 K, 17798 kPa, x1 = 0.0276	803 ± 0.59
323.06 K, 18018 kPa, x1 = 0.0276	805.49 ± 0.59
323.06 K, 18224 kPa, x1 = 0.0276	807.76 ± 0.59
323.06 K, 18490 kPa, x1 = 0.0276	810.6 ± 0.59
323.06 K, 18694 kPa, x1 = 0.0276	812.78 ± 0.58
323.06 K, 19009 kPa, x1 = 0.0276	816 ± 0.58
323.06 K, 19476 kPa, x1 = 0.0276	820.59 ± 0.57
323.06 K, 19995 kPa, x1 = 0.0276	825.42 ± 0.56
323.06 K, 21006 kPa, x1 = 0.0276	834.34 ± 0.55
323.06 K, 22002 kPa, x1 = 0.0276	842.55 ± 0.54
323.06 K, 22987 kPa, x1 = 0.0276	850.05 ± 0.53
323.06 K, 24002 kPa, x1 = 0.0276	857.32 ± 0.53
323.06 K, 24701 kPa, x1 = 0.0276	862.06 ± 0.52
323.07 K, 10356 kPa, x1 = 0.0049	477.23 ± 2.4
323.07 K, 10584 kPa, x1 = 0.0049	504.85 ± 2.3
323.07 K, 11014 kPa, x1 = 0.0049	548.62 ± 1.7
323.07 K, 11189 kPa, x1 = 0.0093	594.87 ± 1.5
323.07 K, 11528 kPa, x1 = 0.0093	616.57 ± 1.3
323.07 K, 12026 kPa, x1 = 0.0093	642.38 ± 1.2
323.07 K, 12054 kPa, x1 = 0.0049	619.66 ± 1.4
323.07 K, 12157 kPa, x1 = 0.0144	663.68 ± 1
323.07 K, 12308 kPa, x1 = 0.0144	669.44 ± 1
323.07 K, 12400 kPa, x1 = 0.0144	672.76 ± 0.96
323.07 K, 12573 kPa, x1 = 0.0144	678.74 ± 0.95
323.07 K, 12986 kPa, x1 = 0.0144	691.87 ± 0.92
323.07 K, 12997 kPa, x1 = 0.0049	660.38 ± 1.1
323.07 K, 13031 kPa, x1 = 0.0093	680.85 ± 0.98
323.07 K, 13495 kPa, x1 = 0.0144	706.09 ± 0.86
323.07 K, 14001 kPa, x1 = 0.0093	708.22 ± 0.84
323.07 K, 14001 kPa, x1 = 0.0144	718.59 ± 0.79
323.07 K, 14013 kPa, x1 = 0.0049	692.38 ± 0.9
323.07 K, 14975 kPa, x1 = 0.0093	730.03 ± 0.76
323.07 K, 15034 kPa, x1 = 0.0049	717.29 ± 0.8
323.07 K, 15051 kPa, x1 = 0.0144	740.61 ± 0.73
323.07 K, 15260 kPa, x1 = 0.0235	764.21 ± 0.7
323.07 K, 15541 kPa, x1 = 0.0235	768.75 ± 0.67
323.07 K, 15987 kPa, x1 = 0.0049	736.48 ± 0.74
323.07 K, 15999 kPa, x1 = 0.0144	757.24 ± 0.68
323.07 K, 16027 kPa, x1 = 0.0235	776.04 ± 0.66
323.07 K, 16061 kPa, x1 = 0.0093	750.23 ± 0.71
323.07 K, 16993 kPa, x1 = 0.0093	765.16 ± 0.67
323.07 K, 17000 kPa, x1 = 0.0144	772.5 ± 0.65
323.07 K, 17006 kPa, x1 = 0.0049	753.98 ± 0.7
323.07 K, 17013 kPa, x1 = 0.0235	790.56 ± 0.63
323.07 K, 18007 kPa, x1 = 0.0235	801.9 ± 0.6
323.07 K, 18016 kPa, x1 = 0.0049	769.15 ± 0.66
323.07 K, 18016 kPa, x1 = 0.0144	786.14 ± 0.62
323.07 K, 18045 kPa, x1 = 0.0093	779.85 ± 0.64
323.07 K, 18986 kPa, x1 = 0.0049	782.09 ± 0.64
323.07 K, 18996 kPa, x1 = 0.0144	797.91 ± 0.6
323.07 K, 19008 kPa, x1 = 0.0235	812.85 ± 0.59
323.07 K, 19015 kPa, x1 = 0.0093	791.95 ± 0.62
323.07 K, 19996 kPa, x1 = 0.0093	803.09 ± 0.6
323.07 K, 20004 kPa, x1 = 0.0049	794.32 ± 0.62
323.07 K, 20013 kPa, x1 = 0.0144	809.02 ± 0.59
323.07 K, 20026 kPa, x1 = 0.0235	822.87 ± 0.57
323.07 K, 20987 kPa, x1 = 0.0049	805.12 ± 0.6
323.07 K, 20996 kPa, x1 = 0.0235	831.78 ± 0.56
323.07 K, 21016 kPa, x1 = 0.0093	813.7 ± 0.59
323.07 K, 21017 kPa, x1 = 0.0144	819.02 ± 0.57
